# Experimental data: US9981986B2, “Antimicrobial compounds” (OXFORD UNIVERSITY INNOVATION LIMITED, priority 2012, dated 2018)
# What was measured:
# [1] = tested on: Staphylococcus aureus N.C.T.C. 6571; assay: hole-plate method, inhibition zones, S. aureus; type: cell-based; conditions: inhibition zone diameter
# Description: (§1) Various compounds illustrative of the compounds of the present invention were synthesised and tested for their bioactivity. Microbiological assays were performed by the hole-plate method with the test organism Staphylococcus aureus N.C.T.C. 6571 or E. coli X580. […] The diameters of the resultant inhibition zones were measured.
# E. coli X580 = assay: hole-plate method, inhibition zones, E. coli; type: cell-based; conditions: inhibition zone diameter
# Description: as §1
# [2] = tested on: S. pneumonia 1, ATCC49619 (erythromycin susceptible); assay: MIC determination (bacteria), P1; type: cell-based
# Description: (§2) MIC Determination (Bacteria);
# (§3) MICs were determined based on Clinical and Laboratory Standards Institute (CLSI) methodology (Methods for dilution antimicrobial susceptibility tests for bacteria that grow aerobically; Approved Standard—seventh edition. 2006, M7-A7, CLSI, Wayne Pa.) by a 2-fold broth dilution technique in Mueller Hinton (pH7.4 Biorad). For S. pneumoniae, the medium was supplemented with 2.5% laked horse blood. For H. influenzae, the medium was haemophilus test medium (H.T.M.). Overnight cultures were diluted to obtain the final inoculum of 10^5 cfu/well. Incubation was 37° C. overnight in ambient air. The MIC was defined as the lowest concentration which inhibited all visual growth and expressed in μg/ml. For each bacterial species, all of the molecules were tested in the same experiment in order to give a head-to-head comparison.
# [3] = tested on: S. aureus 2, (MRSA in vivo); assay: MIC determination (bacteria), S2; type: cell-based
# Description: as §2, §3
# [4] = tested on: H. influenzae 4, LS2 Efflux ko; assay: MIC determination (bacteria), H4; type: cell-based
# Description: as §2, §3
# [5] = tested on: mammalian_red blood cell membrane; assay: In vitro mammalian red blood cell membrane lysis activity; type: cell-based; conditions: read-out: RBC IC50
# Excerpt: (§4) These properties can be determined according to techniques that are well known in the art.
# [6] = type: physicochemical; conditions: pH 7.4
# Excerpt: as §4
# [7] = tested on: S. pneumonia 9, (multi-drug resistant); assay: MIC determination (bacteria), P9 / P9B; type: cell-based; conditions: for MIC P9: S. pneumonia 9, multi-drug resistant; for MIC P9B: S. pneumonia 9 in presence of 2.5% horse blood
# Description: as §2, §3
# S. aureus membrane = assay: In vitro activity in depolarization of S. aureus membrane; type: cell-based; conditions: read-out: DEP IC50
# Excerpt: as §4
# [8] = tested on: S. aureus 26, ATCC25923 (vancomycin susceptible); assay: MIC determination (bacteria), S26; type: cell-based
# Description: as §2, §3
# [9] = tested on: human peripheral blood cells; assay: in vitro toxicities human peripheral blood cells; type: cell-based
# Excerpt: as §4
# [10] = tested on: human embryonic kidney 293 cells; assay: in vitro toxicities against human embryonic kidney 293 cells; type: cell-based
# Excerpt: as §4
# [11] = tested on: E. faecalis 1, ATCC29212 VanS (vancomycin susceptible); assay: MIC determination (bacteria), E1; type: cell-based
# Description: as §2, §3
# S. pneumonia UPPS = target: T1, S. pneumonia UPPS (Streptococcus pneumoniae serotype 4, UniProt Q97SR4); assay: In vitro activity against S. pneumonia UPPS; type: biochemical; conditions: read-out: UPP IC50
# T1 sequence (Q97SR4 1-252): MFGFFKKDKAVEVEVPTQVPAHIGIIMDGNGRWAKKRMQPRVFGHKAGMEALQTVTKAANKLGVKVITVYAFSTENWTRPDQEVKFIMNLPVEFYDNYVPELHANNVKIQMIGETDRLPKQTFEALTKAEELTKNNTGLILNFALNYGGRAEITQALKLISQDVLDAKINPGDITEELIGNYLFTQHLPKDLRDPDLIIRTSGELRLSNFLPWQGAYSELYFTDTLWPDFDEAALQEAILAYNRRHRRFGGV
# Excerpt: as §4
# [12] = tested on: E. faecium 1, VanA (vancomycin resistant); assay: MIC determination (bacteria), E2; type: cell-based
# Description: as §2, §3
# S. aureus 4, Oxford = assay: MIC determination (bacteria), S4; type: cell-based
# Description: as §2, §3
# [13] = tested on: S. aureus 1, ATCC13709 in vivo (methicillin sensitive); assay: MIC determination (bacteria), S1; type: cell-based
# Description: as §2, §3
# E. Coli RNAP = E. Coli RNAP (Escherichia coli, UniProt P0A8T7+P0A8V2); assay: In vitro activity against E. Coli RNAP; type: biochemical; conditions: read-out: RNA IC50
# Chain of E. Coli RNAP (P0A8V2 whole entry): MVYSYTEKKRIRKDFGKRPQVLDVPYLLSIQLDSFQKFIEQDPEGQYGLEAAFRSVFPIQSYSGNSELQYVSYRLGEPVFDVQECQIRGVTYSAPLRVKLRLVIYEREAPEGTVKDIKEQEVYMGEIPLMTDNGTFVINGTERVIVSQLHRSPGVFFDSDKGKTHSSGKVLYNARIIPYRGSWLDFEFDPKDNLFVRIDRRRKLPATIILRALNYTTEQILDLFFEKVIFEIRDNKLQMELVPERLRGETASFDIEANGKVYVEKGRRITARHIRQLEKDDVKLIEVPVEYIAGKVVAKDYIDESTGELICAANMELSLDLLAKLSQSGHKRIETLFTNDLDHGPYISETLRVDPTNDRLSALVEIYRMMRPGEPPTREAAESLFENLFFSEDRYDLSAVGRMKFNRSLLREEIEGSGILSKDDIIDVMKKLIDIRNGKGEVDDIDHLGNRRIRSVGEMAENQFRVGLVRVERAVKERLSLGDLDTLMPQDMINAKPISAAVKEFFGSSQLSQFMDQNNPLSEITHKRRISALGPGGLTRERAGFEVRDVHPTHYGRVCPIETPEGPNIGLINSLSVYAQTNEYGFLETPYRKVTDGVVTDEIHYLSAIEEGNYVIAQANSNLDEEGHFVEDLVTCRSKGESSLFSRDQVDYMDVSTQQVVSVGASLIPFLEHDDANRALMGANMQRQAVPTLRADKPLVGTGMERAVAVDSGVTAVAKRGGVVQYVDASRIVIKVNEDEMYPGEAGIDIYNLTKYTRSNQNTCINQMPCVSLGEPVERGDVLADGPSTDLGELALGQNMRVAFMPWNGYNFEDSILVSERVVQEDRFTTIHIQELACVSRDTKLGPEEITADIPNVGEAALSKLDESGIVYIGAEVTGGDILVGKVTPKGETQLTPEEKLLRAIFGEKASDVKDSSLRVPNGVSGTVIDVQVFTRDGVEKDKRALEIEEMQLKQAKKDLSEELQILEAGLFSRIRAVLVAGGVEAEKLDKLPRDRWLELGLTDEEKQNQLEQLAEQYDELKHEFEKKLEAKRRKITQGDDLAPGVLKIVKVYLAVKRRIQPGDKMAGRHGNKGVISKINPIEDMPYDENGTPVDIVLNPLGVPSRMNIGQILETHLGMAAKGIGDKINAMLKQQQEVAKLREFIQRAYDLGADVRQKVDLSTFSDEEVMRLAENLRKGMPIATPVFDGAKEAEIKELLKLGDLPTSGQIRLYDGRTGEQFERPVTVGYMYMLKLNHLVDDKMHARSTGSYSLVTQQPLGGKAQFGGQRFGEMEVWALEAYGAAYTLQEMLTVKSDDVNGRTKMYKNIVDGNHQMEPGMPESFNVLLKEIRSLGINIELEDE
# Chain of E. Coli RNAP (P0A8T7 whole entry): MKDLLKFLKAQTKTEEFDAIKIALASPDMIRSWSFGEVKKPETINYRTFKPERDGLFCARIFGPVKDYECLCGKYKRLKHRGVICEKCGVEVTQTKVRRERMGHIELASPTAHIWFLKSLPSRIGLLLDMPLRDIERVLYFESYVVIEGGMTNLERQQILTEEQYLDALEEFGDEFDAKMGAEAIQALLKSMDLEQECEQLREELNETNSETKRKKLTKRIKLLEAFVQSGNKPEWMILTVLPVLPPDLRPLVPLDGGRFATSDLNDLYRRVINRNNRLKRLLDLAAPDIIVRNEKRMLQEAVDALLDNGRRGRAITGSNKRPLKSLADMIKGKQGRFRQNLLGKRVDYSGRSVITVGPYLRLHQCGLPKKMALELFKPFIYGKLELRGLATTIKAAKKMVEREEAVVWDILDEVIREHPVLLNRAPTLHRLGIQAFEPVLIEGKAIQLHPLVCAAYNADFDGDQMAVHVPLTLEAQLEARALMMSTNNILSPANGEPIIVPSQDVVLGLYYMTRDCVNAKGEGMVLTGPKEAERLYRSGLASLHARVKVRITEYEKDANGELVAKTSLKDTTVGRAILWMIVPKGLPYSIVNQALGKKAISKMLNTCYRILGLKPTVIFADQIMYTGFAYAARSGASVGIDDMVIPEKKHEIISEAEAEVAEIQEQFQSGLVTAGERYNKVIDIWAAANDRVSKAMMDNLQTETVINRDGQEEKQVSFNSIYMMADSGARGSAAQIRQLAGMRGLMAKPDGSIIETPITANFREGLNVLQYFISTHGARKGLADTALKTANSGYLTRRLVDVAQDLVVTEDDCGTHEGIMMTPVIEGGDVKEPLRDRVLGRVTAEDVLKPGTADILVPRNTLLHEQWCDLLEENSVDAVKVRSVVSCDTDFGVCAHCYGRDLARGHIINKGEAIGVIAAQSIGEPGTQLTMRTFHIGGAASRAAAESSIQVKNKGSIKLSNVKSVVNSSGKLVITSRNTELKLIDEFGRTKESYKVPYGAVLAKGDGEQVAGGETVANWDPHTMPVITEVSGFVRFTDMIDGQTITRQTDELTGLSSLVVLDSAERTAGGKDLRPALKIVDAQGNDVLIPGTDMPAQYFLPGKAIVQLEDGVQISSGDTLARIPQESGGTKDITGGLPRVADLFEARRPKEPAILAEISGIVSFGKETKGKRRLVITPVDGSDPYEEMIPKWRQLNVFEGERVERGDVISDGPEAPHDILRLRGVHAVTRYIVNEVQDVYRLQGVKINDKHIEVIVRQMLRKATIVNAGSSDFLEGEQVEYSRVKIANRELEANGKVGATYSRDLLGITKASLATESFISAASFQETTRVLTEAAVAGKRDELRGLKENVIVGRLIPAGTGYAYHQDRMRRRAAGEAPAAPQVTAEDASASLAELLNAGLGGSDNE
# Chain of E. Coli RNAP (P0A7Z4 whole entry partner): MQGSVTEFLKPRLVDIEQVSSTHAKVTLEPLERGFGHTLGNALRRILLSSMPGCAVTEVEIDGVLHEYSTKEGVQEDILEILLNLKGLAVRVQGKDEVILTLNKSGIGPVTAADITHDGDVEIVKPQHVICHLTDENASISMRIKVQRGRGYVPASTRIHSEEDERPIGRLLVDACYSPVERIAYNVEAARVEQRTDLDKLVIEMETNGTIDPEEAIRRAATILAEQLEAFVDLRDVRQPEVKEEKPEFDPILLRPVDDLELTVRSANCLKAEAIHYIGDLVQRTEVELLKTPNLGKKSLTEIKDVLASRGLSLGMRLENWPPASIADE
# Chain of E. Coli RNAP (P0A800 whole entry partner): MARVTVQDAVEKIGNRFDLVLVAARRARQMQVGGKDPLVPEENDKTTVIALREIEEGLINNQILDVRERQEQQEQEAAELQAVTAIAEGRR
# Excerpt: as §4
# [14] = tested on: H. influenzae 3, ATCC31517 MMSA; assay: MIC determination (bacteria), H3; type: cell-based
# Description: as §2, §3
# Candida albicans = assay: MIC determination (fungus), Candida albicans; type: cell-based
# Description: MIC Determination (Fungus); MICs were determined for the antifungus by microdilution methods using RPMI 1640 medium buffered with morpholinopropanesulfonic acid (MOPS) and supplemented with L-glutamine as described by CLSI procedures (M27-A method) (Reference method for broth dilution antifungal susceptibility testing of yeasts; Approved standard—[…]. 2006, M27-A2, CLSI, Wayne Pa.).
# plasma protein = type: in vitro ADME
# Excerpt: as §4
structure (smiles),measurement,setting,value
CCOC(=O)C1=C(O)C2CS[C@@H](c3ccc([N+](=O)[O-])cc3)N2C1=O (stereo partly shown),Bioactivity (mm) S. aureus (4 mg/ml),[1],16 mm
CCOC(=O)CC(=O)N1C(c2ccc(F)cc2Cl)SC[C@@H]1C(=O)OC (stereo partly shown),Bioactivity (mm) E. coli (4 mg/ml),E. coli X580; 4 mg/ml,16 mm
CCOC(=O)C1=C(O)C2CS[C@@H](c3ccc(F)cc3Cl)N2C1=O (stereo partly shown),Bioactivity (mm) S. aureus (4 mg/ml),[1],18 mm
O=C(NC12CC3CC(CC(C3)C1)C2)C1=C(O)C2CS[C@@H](c3ccccc3)N2C1=O (stereo partly shown),Bioactivity (mm) E. coli 0.001 mg/ml,E. coli X580; 0.001 mg/ml,15 mm
same,Bioactivity (mm) E. coli 0.01 mg/ml,E. coli X580,15 mm
same,Bioactivity (mm) S. aureus 0.01 mg/ml,[1],22 mm
O=C(NC12CC3CC(CC(C3)C1)C2)C1=C(O)C2CS[C@@H](c3ccc(F)cc3)N2C1=O (stereo partly shown),Bioactivity (mm) E. coli 0.01 mg/ml,E. coli X580,14 mm
same,Bioactivity (mm) S. aureus 0.001 mg/ml,[1],21 mm
same,Bioactivity (mm) S. aureus 0.01 mg/ml,[1],27 mm
O=C(NC12CC3CC(CC(C3)C1)C2)C1=C(O)C2CS[C@@H](c3ccc([N+](=O)[O-])cc3)N2C1=O (stereo partly shown),Bioactivity (mm) E. coli 0.01 mg/ml,E. coli X580,14 mm
same,Bioactivity (mm) S. aureus 0.001 mg/ml,[1],19 mm
same,Bioactivity (mm) S. aureus 0.01 mg/ml,[1],25 mm
O=C(NC12CC3CC(CC(C3)C1)C2)C1=C(O)C2CS[C@@H](c3ccc(F)cc3Cl)N2C1=O (stereo partly shown),Bioactivity (mm) E. coli 0.01 mg/ml,E. coli X580,14 mm
same,Bioactivity (mm) S. aureus 0.001 mg/ml,[1],21 mm
same,Bioactivity (mm) S. aureus 0.01 mg/ml,[1],25 mm
CCOC(=O)C1=C(O)C2CSC(c3cccc(Br)c3)N2C1=O (stereo not shown),Bioactivity (mm) S. aureus (4 mg/ml),[1]; Cm,2.0 Cm
CCOC(=O)C1=C(O)C2CSC(c3ccc(Br)cc3)N2C1=O (stereo not shown),Bioactivity (mm) S. aureus (4 mg/ml),[1]; Cm,1.7 Cm
CCOC(=O)C1=C(O)C2CSC(c3ccc(CO[Si](C)(C)C(C)(C)C)cc3)N2C1=O (stereo not shown),Bioactivity (mm) S. aureus (4 mg/ml),[1]; Cm,2.3 Cm
CC(C)(C)[Si](C)(C)OCc1ccc([C@@H]2SCC3C(O)=C(C(=O)NC45CC6CC(CC(C6)C4)C5)C(=O)N32)cc1 (stereo partly shown),Bioactivity (mm) S. aureus 0.25 mg/ml,[1],12 mm
same,Bioactivity (mm) S. aureus 0.5 mg/ml,[1],13 mm
Cc1cc(Cl)ccc1NC(=O)C1=C(O)C2CS[C@@H](c3ccc(Br)cc3)N2C1=O (stereo partly shown),Bioactivity (mm) S. aureus 0.25 mg/ml,[1],25 mm
same,Bioactivity (mm) S. aureus 0.5 mg/ml,[1],26 mm
CC(C)(C)C1OCC2(C)C(=O)C(C(=O)NC34CC5CC(CC(C5)C3)C4)C(=O)N12 (racemic) [(±)-2A],MIC P1,[2],1 µg/mL
same,MIC S2,[3],1 µg/mL
same,MIC H4,[4],1 µg/mL
same,IC50,[5],> 100 µM
same,SOL,[6],75 to 150 µM
same,MIC P9,[7],1 µg/mL
same,MIC P9B,[7],1 µg/mL
same,IC50,S. aureus membrane,10.8 µM
same,MIC S26,[8],2 µg/mL
same,PMB LD50,[9],30.3 µM
same,HEK LD50,[10],30.3 µM
same,MIC E1,[11],1 µg/mL
same,IC50,S. pneumonia UPPS,0.38 µM
same,MIC E2,[12],1 µg/mL
same,MIC S4,"S. aureus 4, Oxford",1 µg/mL
same,MIC S1,[13],1 µg/mL
same,IC50,E. Coli RNAP,17 µM
same,MIC H3,[14],2 µg/mL
same,CAN MIC,Candida albicans,>32 µg/mL
CC(C)(C)C1OCC2(C)C(O)=C(C(=O)NCC3CCCCC3)C(=O)N12 (racemic) [(±)-2E],MIC P1,[2],2 µg/mL
same,MIC S2,[3],2 µg/mL
same,MIC H4,[4],0.12 µg/mL
same,IC50,[5],> 100 µM
same,SOL,[6],>300 µM
same,MIC P9,[7],1 µg/mL
same,MIC P9B,[7],1 µg/mL
same,IC50,S. aureus membrane,84.3 µM
same,MIC S26,[8],4 µg/mL
same,PMB LD50,[9],90.9 µM
same,HEK LD50,[10],90.9 µM
same,PPB,plasma protein,96.6%
same,MIC E1,[11],2 µg/mL
same,IC50,S. pneumonia UPPS,0.68 µM
same,MIC E2,[12],1 µg/mL
same,MIC S4,"S. aureus 4, Oxford",4 µg/mL
same,MIC S1,[13],4 µg/mL
same,IC50,E. Coli RNAP,31 µM
same,MIC H3,[14],4 µg/mL
same,CAN MIC,Candida albicans,>32 µg/mL
CCOC(=O)C12C(=O)C(=C(O)CC34CC5CC(C)(CC(C)(C5)C3)C4)C(=O)N1C(C(C)(C)C)OC2C (racemic) [Compound 6C],MIC P1,[2],0.5 µg/mL
same,MIC S2,[3],1 µg/mL
same,MIC H4,[4],0.25 µg/mL
same,IC50,[5],> 100 µM
same,SOL,[6],>300 µM
same,MIC P9,[7],0.5 µg/mL
same,MIC P9B,[7],1 µg/mL
same,IC50,S. aureus membrane,> 100 µM
same,MIC S26,[8],2 µg/mL
same,PMB LD50,[9],>90.9 µM
same,HEK LD50,[10],90.9 µM
same,PPB,plasma protein,99.8%
same,MIC E1,[11],2 µg/mL
same,IC50,S. pneumonia UPPS,3.2 µM
same,MIC E2,[12],1 µg/mL
same,MIC S4,"S. aureus 4, Oxford",2 µg/mL
same,MIC S1,[13],2 µg/mL
same,IC50,E. Coli RNAP,4 µM
same,MIC H3,[14],64 µg/mL
same,CAN MIC,Candida albicans,>32 µg/mL
CCOC(=O)C12C(=O)C(=C(O)CC(C)(C)CC(=O)OCCC34CC5CC(CC(C5)C3)C4)C(=O)N1C(C(C)(C)C)OC2C (racemic) [Compound 6G],MIC P1,[2],2 µg/mL
same,MIC S2,[3],0.5 µg/mL
same,MIC H4,[4],2 µg/mL
same,IC50,[5],> 100 µM
same,SOL,[6],>300 µM
same,MIC P9,[7],1 µg/mL
same,MIC P9B,[7],4 µg/mL
same,IC50,S. aureus membrane,> 100 µM
same,MIC S26,[8],1 µg/mL
same,PMB LD50,[9],>90.9 µM
same,HEK LD50,[10],10.1 µM
same,MIC E1,[11],1 µg/mL
same,IC50,S. pneumonia UPPS,1.9 µM
same,MIC E2,[12],0.5 µg/mL
same,MIC S4,"S. aureus 4, Oxford",1 µg/mL
same,MIC S1,[13],0.5 µg/mL
same,IC50,E. Coli RNAP,2.4 µM
same,MIC H3,[14],>64 µg/mL
same,CAN MIC,Candida albicans,>32 µg/mL
